Experimental data: US5891882A, “Benzopyranopyrrole and benzopyranopyridine α-1 adenergic compounds” (priority 1997, dated 1999)
Structures can show the parent of a compound that is named as a salt. Where two headings read alike, the source gives them in different places.

Legend:
[1] = target: T1, α-1b adrenoreceptor (hamster) (Mesocricetus auratus, UniProt P18841); experiment: In vitro [3H]-prazosin radioligand binding, cloned α-1b adrenoreceptor expressed in LTK cells
T1 construct: expressed in transfected cells; cDNA from TULCO; membranes
T1 sequence (P18841 1-515): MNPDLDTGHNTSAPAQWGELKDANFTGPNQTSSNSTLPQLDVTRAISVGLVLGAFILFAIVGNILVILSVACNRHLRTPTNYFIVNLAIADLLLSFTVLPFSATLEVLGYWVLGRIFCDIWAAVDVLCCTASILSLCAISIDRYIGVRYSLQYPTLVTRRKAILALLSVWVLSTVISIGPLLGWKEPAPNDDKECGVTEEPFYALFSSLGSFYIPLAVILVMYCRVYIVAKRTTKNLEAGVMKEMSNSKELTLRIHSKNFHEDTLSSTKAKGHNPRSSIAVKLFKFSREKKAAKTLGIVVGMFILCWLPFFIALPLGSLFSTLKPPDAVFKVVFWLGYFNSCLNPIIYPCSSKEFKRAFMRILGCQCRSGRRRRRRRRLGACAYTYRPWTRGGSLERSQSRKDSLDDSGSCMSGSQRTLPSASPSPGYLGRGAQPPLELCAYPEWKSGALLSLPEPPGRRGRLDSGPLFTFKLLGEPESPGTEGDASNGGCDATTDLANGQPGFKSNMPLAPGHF
Excerpt: The cDNA clones encoding the α-1 adrenoreceptors (α-1a, α-1b, and α-1d) were obtained from TULCO (Triangle Universities Licensing Consortium, Research Triangle Park, N.C.) and inserted into the eukaryotic expression vector SnaB30. In this vector, expression of the adrenoreceptor gene is under the transcriptional control of an SV40 early promoter. Positive drug selection is provided by a neomycin-resistance gene. Mouse fibroblast cells (LTK) were transfected with the α1 expression plasmids and grown in Dulbecco's modified Eagle's medium (DMEM) containing 10% fetal calf serum and […]. Stable G418-resistant parental lines were generated, with successful expression of adrenoreceptor protein monitored using radioligand binding techniques. Stable single cell clones derived from the parental lines were screened in adrenoreceptor binding assays to identify clones having high adrenoreceptor density. Roller bottle cultures of the cloned lines were used to provide cell membranes for subsequent adrenoreceptor binding characterization studies. A cell line containing the SnaB30 vector expressing the human erythropoietin gene served as a negative control.
For adrenoreceptor binding assays, large scale membrane preparations were utilized in which 6 million cells were seeded into small (450 cm^2) Corning tissue culture roller bottles. 200 mL of DMEM containing 10% fetal calf serum and 300 μM G418 were added to each roller bottle. A 95% air/5% CO2 gas mixture (sterile) was injected into each roller bottle prior to sealing. The bottles were then incubated at 37° C. on a roller rack for 5 days. Cells were re-fed with fresh medium after 3 days in culture.
(§1) On the fifth day of culture, growth medium was removed from cells grown in roller bottles, and the cells were washed twice with PBS (Sigma, 120 mM NaCl, 2.7 mM KCl, 10 mM Na2 HPO4 --NaH2 PO4, pH=7.4). Cells were detached from the roller bottles by incubating for 15 minutes at 37° C. in a Tris-EDTA solution (10 mM Tris, 100 mM NaCl, 1 mM EDTA, pH=7.4). The cell suspension from each roller bottle was decanted into tared centrifuge tubes and kept on ice. An aliquot of each cell suspension was generally taken for cell counting. Cells were centrifuged at 3000×G for 5 min at 2°-4° C., washed with PBS and recentrifuged. The supernatant was decanted and the pellet weighed to determine the wet weight of cells. Cells were washed a final time in 40 vol 5 mM Tris-HCl, 5 mM EDTA, pH=7.7, and centrifuged at 40,000×G for 10 minutes. Cells were homogenized in 10 mL of 50 mM Tris-HCl, 5 mM EDTA (pH=7.4) and diluted to 40 mL/tube. Homogenates were centrifuged at 40,000×G for 10 minutes. The supernatant was decanted and the pellets rehomogenized in 50 mM Tris-HCl (pH=7.4) and centrifuged as before. The supernatant was decanted and the homogenate resuspended in 6.25 volumes (per gram wet weight) of 50 mM Tris-HCl and aliquots of the pooled homogenates frozen in liquid N2 and stored at -70° C. until the time of assay. Rat submaxillary glands were used for α-1A adrenoreceptors and were prepared essentially as described (Michel, A. D., Loury, D. N. and Whiting, R. L., Brit. J. Pharmacol. 98: 83-889 (1989)).
(§2) Receptor binding assays for α-1 adrenoreceptors were performed essentially as described by Greengrass and Bremner (Eur. J. Pharmacol. 55: 323-326 (1979)). […] Radioactivity was determined by standard liquid scintillation techniques. Data were analyzed as previously described (Hancock, A. A., Kyncl, J. J., Martin, Y. C. and DeBernardis, J. F., J Receptor Res. 8: 23-46 (1988)).

[2] = target: T2, α-1A adrenoreceptor (rat submaxillary gland) (Rattus norvegicus, UniProt P43140); experiment: In vitro [3H]-prazosin radioligand binding, pharmacologically defined α-1A adrenoreceptor (rat submaxillary gland)
T2 construct: Rat submaxillary glands were used for α-1A adrenoreceptors; from tissue; host or cells: rat submaxillary gland membranes
T2 sequence (P43140 1-466): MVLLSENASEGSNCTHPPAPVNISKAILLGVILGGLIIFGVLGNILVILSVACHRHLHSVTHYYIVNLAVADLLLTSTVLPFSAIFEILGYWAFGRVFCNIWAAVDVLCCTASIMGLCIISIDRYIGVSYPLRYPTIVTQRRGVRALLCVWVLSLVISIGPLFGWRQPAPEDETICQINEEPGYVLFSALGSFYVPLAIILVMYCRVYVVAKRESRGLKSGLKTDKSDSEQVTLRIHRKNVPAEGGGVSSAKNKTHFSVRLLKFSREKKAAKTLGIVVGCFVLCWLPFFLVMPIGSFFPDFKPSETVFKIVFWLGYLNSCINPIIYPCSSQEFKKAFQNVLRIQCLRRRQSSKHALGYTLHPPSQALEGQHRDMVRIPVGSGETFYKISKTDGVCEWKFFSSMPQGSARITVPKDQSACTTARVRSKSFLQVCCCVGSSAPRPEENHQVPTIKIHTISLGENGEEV
Protocol: Additionally, binding affinity against the pharmacologically defined α-1A adrenoreceptor (rat submaxillary gland) was measured.
as §1, §2

[3] = target: T3, α-1A adrenoreceptor (rat vas deferens) (Rattus norvegicus, UniProt P43140); experiment: Functional antagonism: inhibition of phenylephrine-induced contraction of rat vas deferens; type: cell-based
T3 construct: from tissue; host or cells: rat vas deferens
T3 sequence (P43140 1-466): T2 sequence (P43140 1-466)
Excerpt: Functional assays indicative of pharmacologically defined α-1 adrenoreceptors were used to further characterize compounds. Inhibition of phenylephrine (PE)-induced contraction of canine prostate smooth muscle can be correlated with α-1A adrenoreceptor activation. […] For each of these models, agonist dose response curves were repeated against increasing concentrations of test agent to derive a Schild plot [log ([…]) against log (molarity of test agent)] to determine the pA2.

[4] = cloned hamster α-1b in LTK cells, [3H]prazosin 0.2 nM, read-out: Radioligand Binding (Ki; nM) 1b (Hamster)
[5] = rat submaxillary gland, [3H]prazosin 0.2 nM, read-out: Radioligand Binding (Ki; nM) 1A (Rat)

Ki [1, 4] | Ki [2, 5] | In Vitro Characterization (pA2) Rat Vas ([3]; rat vas deferens, phenylephrine-induced contraction, Schild plot) | SMILES | Kb [3] | Ki [1] | Ki [2]
1.46 nM | 0.102 nM |  | COc1cc2[nH]c(=O)n(CCN3CC[C@H]4c5c(OC)cccc5OC[C@@H]4C3)c(=O)c2cc1OC (relative stereo) [Example 91, 3-[2-((±)-trans-10-Methoxy-1,3,4,4a,5,10b-hexahydro-2H-[1]-benzopyrano[3,4-c]pyrido-3-yl)ethyl]-6,7-dimethoxy-quinazoline-2,4(1H,3H)-dione hydrochloride] |  |  | 
 |  |  | COc1cccc2c1[C@@H]1CCN(CCCCn3c(=O)[nH]c4c(sc5ccccc54)c3=O)C[C@H]1CO2 (relative stereo) [Example 87, 3-[4-((±)-trans-10-Methoxy-1,3,4,4a,5,10b-hexahydro-2H-[1]-benzopyrano[3,4-c]pyrido-3-yl)butyl]-[1]-benzthieno[3,2-d]pyrimidine-2,4(1H,3H)-dione hydrochloride] | 2.14 nM | 2.86 nM | 0.371 nM
 |  |  | COc1cccc2c1[C@@H]1CCN(CCCCn3c(=O)[nH]c4c(sc5cccnc54)c3=O)C[C@H]1CO2 (relative stereo) [Example 88, 3-[4-((±)-trans-10-Methoxy-1,3,4,4a,5,10b-hexahydro-2H-[1]-benzopyrano[3,4-c]pyrido-3-yl)butyl]-pyrido[2',3':4,5]thieno[3,2-d]pyrimidine-2,4(1H,3H)-dione hydrochloride] | 1.82 nM | 0.791 nM | 0.188 nM
10.5 nM | 0.811 nM | 9.02 | COc1ccc2c(n1)sc1c(=O)n(CCCCN3C[C@@H]4COc5cccc(OC)c5[C@@H]4C3)c(=O)[nH]c12 [Example 33, hydrochloride] |  |  | 
